Test results as given in paper PMC6271254, “Antibacterial and EGFR-Tyrosine Kinase Inhibitory Activities of Polyhydroxylated Xanthones from Garcinia succifolia” (Molecules, 2014).

Molecular target: epidermal growth factor receptor (EGFR) tyrosine kinase (Homo sapiens, UniProt P00533)
Assay: fluorescence tyrosine kinase assay (Antibody Beacon detection), dose-response
Type: biochemical

Chain of epidermal growth factor receptor (EGFR) tyrosine kinase (P00533 25-1210): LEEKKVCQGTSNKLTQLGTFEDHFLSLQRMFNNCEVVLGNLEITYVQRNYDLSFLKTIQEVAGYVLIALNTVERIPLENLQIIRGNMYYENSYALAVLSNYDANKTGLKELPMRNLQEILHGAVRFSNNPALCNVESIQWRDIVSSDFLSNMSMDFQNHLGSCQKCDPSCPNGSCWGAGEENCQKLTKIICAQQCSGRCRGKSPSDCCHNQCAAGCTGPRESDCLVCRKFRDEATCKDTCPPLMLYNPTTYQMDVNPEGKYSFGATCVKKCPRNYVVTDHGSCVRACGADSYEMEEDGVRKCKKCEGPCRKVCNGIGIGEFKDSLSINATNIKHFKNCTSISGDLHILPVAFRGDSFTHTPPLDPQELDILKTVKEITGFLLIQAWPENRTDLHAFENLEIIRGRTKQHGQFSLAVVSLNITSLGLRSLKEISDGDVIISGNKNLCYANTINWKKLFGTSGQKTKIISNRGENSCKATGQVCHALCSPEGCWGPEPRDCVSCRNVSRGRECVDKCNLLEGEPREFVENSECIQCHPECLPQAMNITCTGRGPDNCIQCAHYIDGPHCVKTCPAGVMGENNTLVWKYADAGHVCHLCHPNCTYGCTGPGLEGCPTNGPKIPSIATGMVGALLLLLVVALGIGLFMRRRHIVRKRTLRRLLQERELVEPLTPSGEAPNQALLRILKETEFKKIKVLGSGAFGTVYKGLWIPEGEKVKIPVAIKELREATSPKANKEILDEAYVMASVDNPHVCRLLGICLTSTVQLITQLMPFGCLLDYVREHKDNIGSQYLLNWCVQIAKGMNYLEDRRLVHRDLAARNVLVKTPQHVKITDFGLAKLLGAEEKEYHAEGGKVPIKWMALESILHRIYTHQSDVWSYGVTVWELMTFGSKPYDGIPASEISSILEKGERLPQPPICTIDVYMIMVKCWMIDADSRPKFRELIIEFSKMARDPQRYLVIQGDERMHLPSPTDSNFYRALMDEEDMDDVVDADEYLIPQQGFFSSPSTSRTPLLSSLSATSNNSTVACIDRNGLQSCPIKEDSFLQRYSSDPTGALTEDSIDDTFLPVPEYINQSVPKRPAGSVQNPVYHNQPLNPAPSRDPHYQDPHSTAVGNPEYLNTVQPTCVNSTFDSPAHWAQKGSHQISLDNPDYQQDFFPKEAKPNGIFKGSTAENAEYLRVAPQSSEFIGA

Row | IC50 [nM] | Compound
1 | 90.3 | O=c1c2cccc(O)c2oc2cccc(O)c12 [compound 1, 1,5-dihydroxyxanthone]
2 | 223 | O=c1c2cc(O)ccc2oc2cccc(O)c12 [compound 2, 1,7-dihydroxyxanthone]
